Reference: article PMC10285254, “The FAM86 domain of FAM86A confers substrate specificity to promote EEF2-Lys525 methylation” (The Journal of Biological Chemistry, 2023)
Numbering of substitutions follows the chain as printed.

Experiments:
FAM86A [1] = target: T1, FAM86A (Homo sapiens, UniProt Q96G04, I256Y/M257Y/E296Y); assay: X-ray crystal structure, […] A; conditions: co-crystallised with 1 mM SAH, ammonium citrate pH 7.0, PEG 3350, 5 mM TCEP, 12 C; SAM-binding site of MTase domain
T1 construct: gene EEF2KMT; full-length, surface-entropy-reduction triple mutant; N-terminal His6-MBP tag removed by TEV; E. coli BL21(DE3) RIL; residues 1-5 and 127-133 not traced
T1 sequence (Q96G04 1-330 I256Y/M257Y/E296Y): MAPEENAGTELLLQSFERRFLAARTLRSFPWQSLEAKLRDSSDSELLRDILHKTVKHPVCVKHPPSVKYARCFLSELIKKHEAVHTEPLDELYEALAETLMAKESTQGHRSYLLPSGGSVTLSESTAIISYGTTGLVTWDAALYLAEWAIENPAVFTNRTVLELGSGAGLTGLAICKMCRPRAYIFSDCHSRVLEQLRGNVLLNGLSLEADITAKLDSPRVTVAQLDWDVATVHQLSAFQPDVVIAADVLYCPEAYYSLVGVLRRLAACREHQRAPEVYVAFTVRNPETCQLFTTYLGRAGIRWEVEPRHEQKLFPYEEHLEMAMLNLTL

FAM86A [2] = target: T2, FAM86A (Homo sapiens, UniProt Q96G04); assay: in vitro methylation, autoradiography; type: biochemical; conditions: labelled compound; methyl donor; co-substrate recombinant human EEF2 (Lys525); Tris-HCl pH 8.0, 20 mM KCl, 5 mM MgCl2, 10% glycerol, 30 C overnight
T2 construct: gene EEF2KMT; full-length; E. coli BL21
T2 sequence (Q96G04 1-330): T1 sequence (Q96G04 1-330 I256Y/M257Y/E296Y) with Y256I, Y257M, Y296E
Experimental: in vitro methylation, autoradiography on FA[…] | incubating recombinant, purified FA[…] with recombinant, purified EEF2 in the presence of radiolabeled SAM

FAM86A [3] = target: T3, FAM86A (Homo sapiens, UniProt Q96G04, A97R); assay: in vitro methylation, autoradiography; type: biochemical; conditions: labelled compound; methyl donor; co-substrate recombinant human EEF2 (Lys525); Tris-HCl pH 8.0, 20 mM KCl, 5 mM MgCl2, 10% glycerol, 30 C overnight
T3 construct: gene EEF2KMT; full-length; E. coli BL21
T3 sequence (Q96G04 1-330 A97R): T1 sequence (Q96G04 1-330 I256Y/M257Y/E296Y) with A97R, Y256I, Y257M, Y296E

Row | Compound | X-ray crystal structure, 3.3 A (FAM86A [1]) | in vitro methylation, autoradiography (FAM86A [2]) | in vitro methylation, autoradiography (FAM86A [3])
1 | Nc1ncnc2c1ncn2[C@@H]1O[C@H](CSCC[C@H](N)C(=O)O)[C@@H](O)[C@H]1O [SAH, S-adenosyl homocysteine] | structure determination of full-length FAM86A in complex with cofactor–by-product S-adenosyl homocysteine (SAH) |  | 
2 | C[S+](CC[C@H](N)C(=O)O)C[C@H]1O[C@@H](n2cnc3c(N)ncnc32)[C@H](O)[C@@H]1O (stereo partly drawn) [SAM, S-adenosyl methionine] |  | incubating recombinant, purified FAM86A with recombinant, purified EEF2 in the presence of radiolabeled SAM | the activity of purified FAM86A (A97R) on purified EEF2 was similar to that of wildtype
